Data as given in EPA's ToxRefDB 2.

What was measured:
mouse [1] = conditions: Prenatal developmental toxicity study, other, Injection, Intraperitoneal, dose end: 15 GD
mouse [2] = conditions: Subchronic inhalation toxicity, b6c3f1, Whole-Body, dose end: 13 week, group: systemic, systemic / organ weight / kidney / absolute + systemic / organ weight / kidney / relative to body weight + systemic / organ weight / liver…
rat [3] = conditions: Combined chronic toxicity/carcinogenicity, sprague dawley, Inhalation, Whole-Body, dose end: 2 year, group: systemic
rabbit = conditions: Prenatal developmental toxicity study, himalayan, Dermal, Topical, dose end: 18 GD
rat [4] = conditions: Prenatal developmental toxicity study, sprague dawley, Oral, Gavage/Intubation, dose end: 15 GD
mouse [5] = conditions: Multigenerational reproductive toxicity study, cd1, Oral, Water, dose end: 2 generation
rat [6] = conditions: Prenatal developmental toxicity study, sprague dawley, Dermal, Topical, dose end: 15 GD
rat [7] = conditions: Subchronic oral toxicity in rodents, wistar, Feed, dose end: 104 day, group: systemic
mouse [8] = conditions: Subchronic inhalation toxicity, b6c3f1, Whole-Body, dose end: 12 week, group: systemic
rat [9] = conditions: Subchronic inhalation toxicity, fischer, Whole-Body, dose end: 12 week, group: systemic
rat [10] = conditions: Prenatal developmental toxicity study, sprague dawley, Inhalation, Whole-Body, dose end: 15 GD
mouse [11] = conditions: Subchronic oral toxicity in rodents, cd1, Feed, dose end: 119 day, group: systemic
mouse [12] = conditions: Subchronic inhalation toxicity, other, Whole-Body, dose end: 13 week, group: systemic
rat [13] = conditions: Subchronic inhalation toxicity, fischer, Whole-Body, dose end: 13 week, group: systemic
mouse [14] = conditions: Prenatal developmental toxicity study, other, Oral, Gavage/Intubation, dose end: 15 GD, group: developmental
rat [15] = conditions: Prenatal developmental toxicity study, sprague dawley, Oral, Gavage/Intubation, dose end: 20 GD
[16] = group: developmental, developmental / developmental malformation / bone / exencephaly
[17] = group: maternal, reproductive / reproductive performance / resorptions / resorptions
[18] = group: maternal, reproductive / reproductive performance / resorptions / resorptions + systemic / in life observation / body weight / body weight + systemic…
[19] = systemic / organ weight / liver / relative to body weight + systemic / pathology microscopic / liver / clear cell focus + systemic / …
[20] = group: developmental, developmental / developmental malformation / general / [other]
[21] = group: maternal, systemic / in life observation / body weight / body weight + systemic / in life observation / clinical signs / skin ulceration
[22] = group: developmental, developmental / developmental malformation / general / [other] + developmental / developmental malformation / general / anasarca + …
[23] = group: maternal, reproductive / reproductive performance / resorptions / resorptions + systemic / in life observation / body weight / body weight gain + …
[24] = group: maternal, systemic / organ weight / placenta / absolute
[25] = group: offspring, developmental / developmental malformation / bone / domed head + developmental / developmental malformation / nose / ecchymosis + systemic…
[26] = group: parental, systemic / organ weight / epididymis / absolute + systemic / organ weight / liver / absolute + systemic / organ weight / liver / relative to…
[27] = group: parental, systemic / organ weight / epididymis / absolute + systemic / organ weight / liver / absolute + systemic / pathology gross / sperm measure / …
[28] = group: reproductive, reproductive / reproductive performance / fertility / fertility + reproductive / offspring survival early / litter size / litter size + …
[29] = group: developmental, developmental / developmental malformation / general / [other] + developmental / developmental malformation / general / crown-rump length
[30] = group: maternal, systemic / organ weight / placenta / absolute + systemic / in life observation / body weight / body weight gain + systemic / in life …
[31] = systemic / clinical chemistry / sodium / sodium + systemic / in life observation / body weight / body weight gain + systemic / in life …
[32] = systemic / in life observation / mortality / mortality + systemic / pathology gross / liver / discolored + systemic / pathology microscopic…
[33] = systemic / pathology microscopic / liver / cytomegaly
[34] = systemic / clinical chemistry / alanine aminotransferase (alt/sgpt) / alanine aminotransferase (alt/sgpt) + systemic / clinical chemistry / …
[35] = group: developmental, systemic / in life observation / body weight / fetal weight
[36] = group: maternal, systemic / in life observation / body weight / body weight gain
[37] = systemic / organ weight / liver / absolute + systemic / organ weight / liver / relative to body weight + systemic / pathology microscopic / …
[38] = systemic / clinical chemistry / cholesterol / cholesterol + systemic / hematology / erythrocyte (rbc) count differential / erythrocyte (rbc…
[39] = systemic / hematology / erythrocyte (rbc) count differential / erythrocyte (rbc) + systemic / hematology / mean corpuscular (cell) volume (…
[40] = developmental / developmental malformation / general / [other] + developmental / developmental malformation / general / crown-rump length + …
[41] = developmental / developmental malformation / general / crown-rump length + systemic / in life observation / body weight / fetal weight
[42] = group: developmental, developmental / developmental malformation / bone / incomplete ossification + systemic / in life observation / body weight / fetal weight
[43] = group: maternal, systemic / in life observation / body weight / body weight gain + systemic / in life observation / food consumption / food consumption

Compound: CN(C)C=O [N,N-Dimethylformamide]
- LEL (mouse [1]; [16]): 944 mg/kg/day
- LOAEL (mouse [1]; [16]): > 944 mg/kg/day
- NEL (mouse [1]; [16]): 378 mg/kg/day
- NOAEL (mouse [1]; [16]): ≥ 944 mg/kg/day
- LEL (mouse [1]; [17]): 378 mg/kg/day
- NEL (mouse [1]; [17]): < 378 mg/kg/day
- LOAEL (mouse [1]; [18]): > 944 mg/kg/day
- NOAEL (mouse [1]; [18]): ≥ 944 mg/kg/day
- LEL (mouse [2]): 50 ppm
- LOAEL (mouse [2]): > 800 ppm
- NEL (mouse [2]): < 50 ppm
- NOAEL (mouse [2]): ≥ 800 ppm
- LOAEL (rat [3]; [19]): > 400 ppm
- NEL (rat [3]; [19]): 25 ppm
- NOAEL (rat [3]; [19]): ≥ 400 ppm
- LEL (rat [3]; systemic / organ weight / liver / relative to body weight + systemic / pathology microscopic / liver / hypertrophy + systemic / clinical …): 100 ppm
- LEL (rabbit; [20]): 400 mg/kg/day
- LOAEL (rabbit; [20]): > 400 mg/kg/day
- NEL (rabbit; [20]): 200 mg/kg/day
- NOAEL (rabbit; [20]): ≥ 400 mg/kg/day
- LEL (rabbit; [21]): 400 mg/kg/day
- LOAEL (rabbit; [21]): > 400 mg/kg/day
- NEL (rabbit; [21]): 200 mg/kg/day
- NOAEL (rabbit; [21]): ≥ 400 mg/kg/day
- LOAEL (rat [4]; [22]): > 1510 mg/kg/day
- NEL (rat [4]; [22]): 166 mg/kg/day
- NOAEL (rat [4]; [22]): ≥ 1510 mg/kg/day
- LEL (rat [4]; group: developmental, developmental / developmental malformation / general / [other] + developmental / developmental malformation / general / crown-rump length + …): 503 mg/kg/day
- LOAEL (rat [4]; [23]): > 1510 mg/kg/day
- NOAEL (rat [4]; [23]): ≥ 1510 mg/kg/day
- LEL (rat [4]; [24]): 166 mg/kg/day
- NEL (rat [4]; [24]): < 166 mg/kg/day
- LEL (mouse [5]; [25]): 545 mg/kg/day
- LOAEL (mouse [5]; [25]): > 1030 mg/kg/day
- NEL (mouse [5]; [25]): 185 mg/kg/day
- NOAEL (mouse [5]; [25]): ≥ 1030 mg/kg/day
- LEL (mouse [5]; [26]): 185 mg/kg/day
- NEL (mouse [5]; [26]): < 185 mg/kg/day
- LOAEL (mouse [5]; [27]): > 1030 mg/kg/day
- NOAEL (mouse [5]; [27]): ≥ 1030 mg/kg/day
- NEL (mouse [5]; group: reproductive, reproductive / reproductive performance / fertility / fertility): 185 mg/kg/day
- LEL (mouse [5]; [28]): 545 mg/kg/day
- LOAEL (mouse [5]; [28]): > 1030 mg/kg/day
- NOAEL (mouse [5]; [28]): ≥ 1030 mg/kg/day
- LEL (rat [6]; [29]): 944 mg/kg/day
- LOAEL (rat [6]; [29]): > 944 mg/kg/day
- NEL (rat [6]; [29]): 472 mg/kg/day
- NOAEL (rat [6]; [29]): ≥ 944 mg/kg/day
- LEL (rat [6]; [24]): 94 mg/kg/day
- NEL (rat [6]; [24]): < 94 mg/kg/day
- LOAEL (rat [6]; [30]): > 944 mg/kg/day
- NOAEL (rat [6]; [30]): ≥ 944 mg/kg/day
- LOAEL (rat [7]; [31]): > 210 mg/kg/day
- NOAEL (rat [7]; [31]): ≥ 210 mg/kg/day
- LEL (rat [7]; systemic / in life observation / food consumption / food consumption): 69 mg/kg/day
- NEL (rat [7]; systemic / in life observation / food consumption / food consumption + systemic / in life observation / body weight / body weight gain + …): 20 mg/kg/day
- LOAEL (mouse [8]; [32]): > 1200 ppm
- NOAEL (mouse [8]; [32]): ≥ 1200 ppm
- LEL (mouse [8]; [33]): 150 ppm
- NEL (mouse [8]; [33]): < 150 ppm
- LOAEL (rat [9]; [34]): > 1200 ppm
- NOAEL (rat [9]; [34]): ≥ 1200 ppm
- LEL (rat [9]; systemic / clinical chemistry / alkaline phosphatase (alp/alk) / alkaline phosphatase (alp/alk)): 300 ppm
- NEL (rat [9]; systemic / clinical chemistry / alkaline phosphatase (alp/alk) / alkaline phosphatase (alp/alk) + systemic / clinical chemistry / aspartate …): 150 ppm
- LEL (rat [10]; [35]): 300 ppm
- LOAEL (rat [10]; [35]): > 300 ppm
- NEL (rat [10]; [35]): 30 ppm
- NOAEL (rat [10]; [35]): ≥ 300 ppm
- LEL (rat [10]; [36]): 300 ppm
- LOAEL (rat [10]; [36]): > 300 ppm
- NEL (rat [10]; [36]): 30 ppm
- NOAEL (rat [10]; [36]): ≥ 300 ppm
- LOAEL (mouse [11]; [37]): > 246 mg/kg/day
- NOAEL (mouse [11]; [37]): ≥ 246 mg/kg/day
- LEL (mouse [11]; systemic / organ weight / liver / relative to body weight): 96 mg/kg/day
- NEL (mouse [11]; systemic / organ weight / liver / relative to body weight + systemic / clinical chemistry / alanine aminotransferase (alt/sgpt) / alanine …): 28 mg/kg/day
- LOAEL (mouse [12]; [34]): > 800 ppm
- NOAEL (mouse [12]; [34]): ≥ 800 ppm
- LEL (mouse [12]; [38]): 50 ppm
- NEL (mouse [12]; [38]): < 50 ppm
- LOAEL (rat [13]; [34]): > 800 ppm
- NOAEL (rat [13]; [34]): ≥ 800 ppm
- LEL (rat [13]; [39]): 50 ppm
- NEL (rat [13]; [39]): < 50 ppm
- LOAEL (mouse [14]; [40]): > 548 mg/kg/day
- NOAEL (mouse [14]; [40]): ≥ 548 mg/kg/day
- LEL (mouse [14]; [41]): 182 mg/kg/day
- NEL (mouse [14]; [41]): < 182 mg/kg/day
- LOAEL (rat [15]; [42]): > 300 mg/kg/day
- NEL (rat [15]; [42]): 50 mg/kg/day
- NOAEL (rat [15]; [42]): ≥ 300 mg/kg/day
- LEL (rat [15]; [35]): 100 mg/kg/day
- LEL (rat [15]; [43]): 100 mg/kg/day
- LOAEL (rat [15]; [43]): > 300 mg/kg/day
- NEL (rat [15]; [43]): 50 mg/kg/day
- NOAEL (rat [15]; [43]): ≥ 300 mg/kg/day
